In patent publication US5659038A, “5-vinyl-and 5-ethinyl-quinolone- and -naphthyridone-carboxylic acids” (Bayer Aktiengesellschaft, priority 1994, dated 1997):
In brackets after ≈: the same amount, converted by molar mass. Structures can show the parent of a compound that is named as a salt. Where two headings read alike, the source gives them in different places.

Legend:
Assay type in all cases: cell-based
[1] = test system: Enterococcus faecalis 9790; test: MIC, serial agar dilution
Method: (§1) The minimum inhibitory concentrations (MICs) were determined in serial dilution tests using Iso-Sensitest Agar (Oxoid). For each test substance, a series of agar plates was prepared which contained concentrations of the active compound which decreased as a result of dilution to twice the volume each time. The agar plates were inoculated using a Multipoint Inoculator (Denley). For inoculation, overnight cultures of the pathogens were used which had previously been diluted to such a concentration that each inoculation point contained approximately 10^4 colony-forming particles. The inoculated agar plates were incubated at 37° C., and the microbial growth was determined after approximately 20 hours. The MIC value (μg/ml) indicates the lowest concentration of active compound at which no growth was discernible with the naked eye.

[2] = test system: Staphylococcus aureus ICB 25701; test: MIC, serial agar dilution
Method: as §1

[3] = test system: Enterococcus faecalis 27101; test: MIC, serial agar dilution
Method: as §1

[4] = test system: Staphylococcus aureus 133; test: MIC, serial agar dilution
Method: as §1

[5] = test system: Staphylococcus aureus ATTC 29213; test: MIC, serial agar dilution
Method: as §1

Enterobater aer.ICB 5240 = test: MIC, serial agar dilution
Method: as §1

[6] = test system: Enterobater cloaceae 2427; test: MIC, serial agar dilution
Method: as §1

E. coli Neumann = test: MIC, serial agar dilution; details: Escherichia coli
Method: as §1

E. coli G293 Lh = test: MIC, veterinary microorganisms; details: Escherichia coli, G293LH, 20 h
Method: as §1
(§2) Table 3 lists MIC values of compounds according to the invention against microorganisms which aye specific to veterinary medicine. The comparison compound shown in this case is enrofloxacin (ENRO), which is a therapeutic used in veterinary medicine.

Staph. Ky 469 We = test: MIC, veterinary microorganisms; details: 20 h
Method: as §1, §2

Staph. Z 318 Lh = test: MIC, veterinary microorganisms; details: 20 h
Method: as §1, §2

Staph. Z433-4 LH = test: MIC, veterinary microorganisms; details: 20 h
Method: as §1, §2

E. coli 21 Bui = test: MIC, veterinary microorganisms; details: Escherichia coli, 20 h
Method: as §1, §2

[7] = Enterococcus faecalis 9790, Iso-Sensitest Agar, 37° C., approximately 20 hours, read-out: MIC
[8] = Staphylococcus aureus, ICB25701, 20 h
[9] = Enterococcus faecalis 27101, Iso-Sensitest Agar, 37° C., approximately 20 hours, read-out: MIC
[10] = Staphylococcus aureus 133, Iso-Sensitest Agar, 37° C., approximately 20 hours, read-out: MIC
[11] = ATTC29213, Staphylococcus aureus ATTC 29213, Iso-Sensitest Agar, 37° C., approximately 20 hours, read-out: MIC
[12] = Enterobater cloaceae 2427, Iso-Sensitest Agar, 37° C., approximately 20 hours, read-out: MIC
[13] = E. coli Neumann, Iso-Sensitest Agar, 37° C., approximately 20 hours, read-out: MIC
[14] = ICB25701, Staphylococcus aureus ICB 25701, Iso-Sensitest Agar, 37° C., approximately 20 hours, read-out: MIC
[15] = Staphylococcus aureus, ATTC29213, 20 h
[16] = Enterobater aer.ICB 5240, Iso-Sensitest Agar, 37° C., approximately 20 hours, read-out: MIC

| SMILES | MIC [1, 7] [µg/mL] | MIC [2, 8] [µg/mL] | MIC [3, 9] [µg/mL] | MIC [4, 10] [µg/mL] | MIC [5, 11] [µg/mL] | MIC (Enterobater aer.ICB 5240; 20 h) [µg/mL] | MIC [6, 12] [µg/mL] | MIC (E. coli Neumann; [13]) [µg/mL] | MIC [2, 14] [µg/mL] | MIC (Enterobater aer.ICB 5240; [16]) [µg/mL] | MIC (E. coli G293 Lh) [µg/mL] | MIC (Staph. Ky 469 We) [µg/mL] | MIC (Staph. Z 318 Lh) [µg/mL] | MIC (Staph. Z433-4 LH) [µg/mL] | MIC (E. coli 21 Bui) [µg/mL] | further results |
| --- | --- | --- | --- | --- | --- | --- | --- | --- | --- | --- | --- | --- | --- | --- | --- | --- |
| C=Cc1c(F)c(N2CC3CCOC3(CN)C2)c(F)c2c1c(=O)c(C(=O)O)cn2C1CC1 (stereo not shown) [Compound 11, 7-(6a-aminomethylhexahydro-furo[2,3-c]pyrrol-5-yl)-1-cyclopropyl-6,8-difluoro-1,4-dihydro-4-oxo-5-vinyl-3-quinolinecarboxyllc acid hydrochloride] | 0.125 | 0.5 | 0.125 | 0.015 | 0.015 | 32 | 0.125 | 0.03 |  |  |  |  |  |  |  |  |
| C=Cc1c(F)c(N2CCN(C)CC2)c(F)c2c1c(=O)c(C(=O)O)cn2C1CC1 [Compound 1, 1-cyclopropyl-6,8-difluoro-1,4-dihydro-4-oxo-7-(4-methyl-1-piperazinyl)-4-oxo-5-vinyl-3-quinolinecarboxylic acid] |  |  |  |  |  | 32 (≈ 82.2 µM) |  | 0.06 (≈ 0.154 µM) | 64 (≈ 164 µM) |  |  |  |  |  |  | MIC ([1]; Enterococcus faecalis, 9790, 20 h): 1 µg/mL (≈ 2.57 µM); MIC ([3]; Enterococcus faecalis, 27101, 20 h): 1 µg/mL (≈ 2.57 µM); MIC ([4]; Staphylococcus aureus, 133, 20 h): 0.25 µg/mL (≈ 0.642 µM); MIC [5, 15]: 0.25 µg/mL (≈ 0.642 µM); MIC ([6]; 20 h): 0.25 µg/mL (≈ 0.642 µM) |
| CCc1c(F)c(N2CCN(C)CC2)c(F)c2c1c(=O)c(C(=O)O)cn2C1CC1 [Compound K, 1-cyclopropyl-5-ethyl-6,8-difluoro-1,4-dihydro-7-(4-methyl-1-piperazinyl)-4-oxo-3-quinolinecarboxylic acid, reference compound] | 64 (≈ 164 µM) |  | 64 (≈ 164 µM) | 16 (≈ 40.9 µM) |  |  |  |  | 64 (≈ 164 µM) | ≤ 128 |  |  |  |  |  | MIC [5, 15]: 8 µg/mL (≈ 20.4 µM); MIC ([6]; 20 h): 1 µg/mL (≈ 2.55 µM); MIC (E. coli Neumann; 20 h): 0.25 µg/mL (≈ 0.639 µM) |
| CCN1CCN(c2cc3c(cc2F)c(=O)c(C(=O)O)cn3C2CC2)CC1 [ENRO, enrofloxacin, reference compound] |  |  |  |  |  |  |  |  |  |  | 32 (≈ 89 µM) | 0.12 (≈ 0.334 µM) | 8 (≈ 22.3 µM) | 0.25 (≈ 0.696 µM) | 32 (≈ 89 µM) |  |
| C=Cc1c(F)c(N2C[C@@H]3CCCN[C@@H]3C2)c(F)c2c1c(=O)c(C(=O)O)cn2C1CC1 [Compound 3, 1-cyclopropyl-7-(S,S-2,8-diazabicyclo[4.3.0]non-8-yl)-6,8-difluoro-1,4-dihydro-4-oxo-5-vinyl-3-quinolinecarboxylic acid] | 0.125 (≈ 0.301 µM) | 0.5 (≈ 1.2 µM) | 0.125 (≈ 0.301 µM) | 0.03 (≈ 0.0722 µM) | 0.03 (≈ 0.0722 µM) | 8 (≈ 19.3 µM) | 0.06 (≈ 0.144 µM) | ≤ 0.015 |  |  |  |  |  |  |  |  |
| C=Cc1c(F)c(N2C[C@@H]3CCCN[C@@H]3C2)c(F)c2c1c(=O)c(C(=O)O)cn2C1CC1 (relative stereo) [Compound 2, 1-cyclopropyl-7-(cis-2,8-diazabicyclo[4.3.0]non-8-yl)-6,8-difluoro-1,4-dihydro-4-oxo-5-vinyl-3-quinolinecarboxylic acid] | 0.125 (≈ 0.301 µM) | 1 (≈ 2.41 µM) | 0.125 (≈ 0.301 µM) | 0.06 (≈ 0.144 µM) | 0.06 (≈ 0.144 µM) |  | 0.125 (≈ 0.301 µM) | 0.06 (≈ 0.144 µM) |  | 16 (≈ 38.5 µM) |  |  |  |  |  |  |
| C=Cc1c(F)c(N2CC3CC=CC(N)C3C2)c(F)c2c1c(=O)c(C(=O)O)cn2C1CC1 (stereo not shown) [Compound 6, 7-(4-amino-1,3,3a,4,7,7a-hexahydro-isoindol-2-yl)-1-cyclopropyl-6,8-difluoro-1,4-dihydro-4-oxo-5-vinyl-3-quinolinecarboxylic acid] | 0.03 (≈ 0.0702 µM) |  | 0.03 (≈ 0.0702 µM) | ≤ 0.015 | ≤ 0.015 |  | 0.125 (≈ 0.292 µM) | 0.015 (≈ 0.0351 µM) | 0.03 (≈ 0.0702 µM) | 4 (≈ 9.36 µM) | 8 (≈ 18.7 µM) | 0.015 (≈ 0.0351 µM) | 0.06 (≈ 0.14 µM) | 0.015 (≈ 0.0351 µM) | 4 (≈ 9.36 µM) |  |
| C=Cc1c(F)c(N2CCC(N)C2)c(F)c2c1c(=O)c(C(=O)O)cn2C1CC1.Cl (stereo not shown) [Compound 5, 7-(3-aminopyrrolidin-1-yl)-1-cyclopropyl-6,8-difluoro-1,4-dihydro-4-oxo-5-vinyl-3-quinolinecarboxylic acid hydrochloride] | 0.125 |  | 0.06 | 0.03 | ≤ 0.015 |  | ≤ 0.015 | ≤ 0.015 | 2 | 4 | 32 | 0.03 | 2 | 0.03 | 16 |  |
| C=Cc1c(F)c(N2CC3CC=CC(NC)C3C2)c(F)c2c1c(=O)c(C(=O)O)cn2C1CC1 (stereo not shown) [Compound 7, 7-(4-methylamino-1,3,3a,4,7,7a-hexahydro-isoindol-2-yl)-1-cyclopropyl-6,8-difluoro-1,4-dihydro-4-oxo-5-vinyl-3-quinolinecarboxylic acid] | 0.03 (≈ 0.068 µM) |  | 0.03 (≈ 0.068 µM) | ≤ 0.015 | ≤ 0.015 | 8 (≈ 18.1 µM) | 0.125 (≈ 0.283 µM) | 0.03 (≈ 0.068 µM) | 0.03 (≈ 0.068 µM) |  |  |  |  |  |  |  |
